Measured values taken from BigSolDB 2.1.

Nc1ccnc(=O)[nH]1
solubility (mole fraction)
Details	288.15 K	293.15 K	298.15 K	303.15 K	308.15 K	313.15 K	318.15 K	323.15 K	328.15 K
in DMSO	–	0.00997	0.0105	0.0111	0.012	0.0129	0.0136	0.0145	0.0155
in ethanol	0.000339	0.000348	0.000372	0.000423	0.000451	0.000497	0.000523	0.000609	0.000692
in isobutanol	0.000144	0.000162	0.000175	0.0002	0.000224	0.000268	0.000309	0.00035	0.000394
in isopentanol	0.000201	0.000221	0.000253	0.000278	0.000308	0.000344	0.000374	0.000415	0.000483
in isopropanol	0.000159	0.000175	0.000187	0.000205	0.00024	0.000283	0.000316	0.000358	0.000412
in methanol	0.000721	0.000808	0.000897	0.000999	0.00112	0.00125	0.00143	0.00159	0.00177
in n-butanol	0.000171	0.000193	0.000221	0.000241	0.000274	0.000301	0.000344	0.000389	0.000439
in n-hexanol	0.000139	0.000153	0.000168	0.000187	0.000213	0.000251	0.00029	0.000337	0.000378
in n-octanol	0.000102	0.000108	0.00012	0.000133	0.000153	0.000188	0.00023	0.000266	0.000304
in n-pentanol	0.000165	0.000185	0.000197	0.000228	0.000254	0.000293	0.00033	0.000369	0.000425
in n-propanol	0.000218	0.000235	0.000273	0.000303	0.000329	0.000373	0.000433	0.000526	0.000588
in sec-butanol	0.000128	0.000137	0.000149	0.000165	0.000191	0.000234	0.000279	0.000321	0.000367
in tert-butanol	–	–	–	0.000269	0.00036	0.000461	0.000706	0.000848	0.00118
in water	0.000768	0.000899	0.00112	0.00145	0.00176	0.00215	0.00261	0.00337	0.00397
